Assay results taken from patent US8263644B2, “Cytotoxic xanthone compounds” (Bristol-Myers Squibb Company, priority 2007, dated 2012).
Converted amounts (≈) assume the structure as drawn. Like-named read-outs stand apart in the source and are kept apart here.

How the values were obtained:
A2780 = test: in vitro cytotoxicity, tumor cell line A2780; assay type: cell-based; settings: Homo sapiens
Procedure: (§1) General Experimental Procedures. NMR spectra were obtained on a Bruker DRX 500 MHz spectrometer, equipped with a 5-mm TXI cryoprobe. Proton and carbon chemical shifts are reported in ppm relative to DMSO at δH 2.49 and δC 39.6. LC-NMR on an enriched psoroxanthin (4) sample was conducted with a Varian Inova 600 MHz instrument, using a YMC ODS-AQ (C18) column, 4.6×150 mm, 3μ and mobile phase water-acetonitrile 7:3, isocratic, 1.2 ml/min flow rate. Low-resolution MS and MS/MS measurements were performed by +νe ESI on a Thermo Scientific Finnigan SSQ7000 (single quadrupole MS), TSQ7000 (triple quadrupole MS), or LCQ Classic (ion trap MS). High-resolution MS data were determined by HR +νe ESI on a Thermo Scientific Finnigan MAT900 (magnetic sector MS, polypropylene glycol reference) or Orbitrap (hybrid ion trap-FTICR MS). IR spectra were recorded with a Perkin-Elmer System 2000 FT-IR instrument (thin film-NaCl). UV spectra were obtained using a Hewlett-Packard 8452A diode array spectrophotometer. Sephadex LH-20 (Pharmacia Biotech) and LiChroprep Si 60, 25-40 μm (EM Separations) were used for column chromatography. HPLC(C18) conditions: Analytical: Agilent HP-1100, Waters corp. […]
(§2) The SOS active compounds 1 and 4 were evaluated for in vitro cytotoxicity in a variety of tumor cell lines. […]

HCT-116 = test: in vitro cytotoxicity, tumor cell line HCT-116; assay type: cell-based; settings: Homo sapiens
Procedure: as §1, §2

[1] = in vitro cytotoxicity, ABAE bovine endothelial cells; assay type: cell-based; settings: bovine, ABAE endothelial cells; ABAE cell line
Procedure: (§3) In particular there was a clear in vitro cytotoxicity observed against ABAE cells (bovine endothelial cell line, 0.03 μg/ml).
as §1, with “corp. X-Terra […] (C18) column, 4.6×150 mm; mobile phase: 0.01 N potassium phosphate buffer pH 3.5-acetonitrile gradient, flow rate 1.2 ml/min. UV 254 nm (Hook, D. J., More, C. F., Yacobucci, J. J., Dubay, G., O'Connor, S.; J. Chromatogr., 1987, 385, 99-108.) Preparative: Beckman System Gold workstation, YMC ODS-A 5μ (C18) column, 20×100 mm. For TLC biogram (SOS) analyses, Silica gel plates (Analtech, 0.25 mm) with chloroform-methanol mixtures (i.e. 95:5 v/v) as the mobile phase were used. For HPLC biogram (SOS) analyses, fractions were collected into Beckman 96-deepwell plates using a Gilson 215 liquid handler and dried under nitrogen stream prior to bioassay.” for “corp.”
as §2

[2] = tested on: ABAE cells (bovine endothelial cell line); test: as above; assay type: cell-based; settings: versus the tumor cell lines
Procedure: as §3
as §1, with “corp. X-Terra […] (C18) column, 4.6×150 mm; mobile phase: 0.01 N potassium phosphate buffer pH 3.5-acetonitrile gradient, flow rate 1.2 ml/min. UV 254 nm (Hook, D. J., More, C. F., Yacobucci, J. J., Dubay, G., O'Connor, S.; J. Chromatogr., 1987, 385, 99-108.) Preparative: Beckman System Gold workstation, YMC ODS-A 5μ (C18) column, 20×100 mm. For TLC biogram (SOS) analyses, Silica gel plates (Analtech, 0.25 mm) with chloroform-methanol mixtures (i.e. 95:5 v/v) as the mobile phase were used. For HPLC biogram (SOS) analyses, fractions were collected into Beckman 96-deepwell plates using a Gilson 215 liquid handler and dried under nitrogen stream prior to bioassay.” for “corp.”
as §2

SKBR3 = test: in vitro cytotoxicity, tumor cell line SKBR3; assay type: cell-based; settings: Homo sapiens, SK-BR-3, read-out: Cytotoxicity IC50
Procedure: as §1, §2

6-cell line panel = test: cytotoxicity in a 6-cell line panel; assay type: cell-based; settings: read-out: mean IC50, cytotoxicity
Procedure: as §3, §1

[3] = tested on: Escherichia coli SOS chromotest; test: Escherichia coli SOS chromotest (TLC/HPLC biogram); assay type: cell-based; settings: E. coli SOS chromotest
Excerpt: The crude extracts as received were subjected to a modified “Kupchan” liquid-liquid partitioning sequence, (Kupchan, S. M., Britton, R. W., Ziegler, M. F., Sigel, C. W.; J. Org. Chem., 1973, 38, 178-179.), followed by gel partition chromatography (Sephadex LH-20) and/or Silica gel vacuum liquid chromatography. The fractionation was guided initially by TLC-bioautography using the Escherichia coli SOS chromotest assay. ((a) Quillardet, P.; Huisman, O.; D'Ari, R.; Hofnung, M. Proc. Natl. Acad. Sci. U.S.A. 1982, 79, 5971-5975. (b) Mamber, S. W.; Okasinski, W. G.; Pinter, C. D.; Tunac, J. B. Mutat. Res., 1986, 171, 83-90.). More precise localization of the peak of SOS activity was later made possible using HPLC biogram methodology. ((a) Fura, A.; Shu, Y.-Z.; Zhu, M.; Hanson, R. L.; Roongta, V.; Humphreys, W. G. J. Med. Chem. 2004, 47, 4339-4351. (b) Hook, D. J., More, C. F., Yacobucci, J. J., Dubay, G., O'Connor, S.; J. Chromatogr., 1987, 385, 99-108.). In this manner, analytical HPLC was used to further fractionate the SOS-active sample into 96-deep-well plates. […]
General Experimental Procedures. […] High-resolution MS data were determined by HR +νe ESI on a Thermo Scientific Finnigan MAT900 (magnetic sector MS, polypropylene glycol reference) or Orbitrap (hybrid ion trap-FTICR MS). IR spectra were recorded with a Perkin-Elmer System 2000 FT-IR instrument (thin film-NaCl). […]

various tumor cell lines = settings: cited from earlier work
p388 mouse leukemia = settings: cited from earlier work

SMILES	IC50 (A2780; A2780, read-out: Cytotoxicity IC50)	IC50 (HCT-116; HCT-116, read-out: Cytotoxicity IC50)	IC50 [1]	selectivity against bovine endothelial cells (ABAE) [2]	IC50 (SKBR3)	IC50 (6-cell line panel)	SOS activity [3]	IC50 (A2780; A2780 cell line, read-out: Cytotoxicity IC50)	IC50 (HCT-116; HCT-116 cell line, read-out: Cytotoxicity IC50)	IC50 (6-cell line panel; mean over 6-cell line panel)	activity in vitro against various tumor cell lines (various tumor cell lines)	activity in vivo against p388 mouse leukemia (p388 mouse leukemia)
O=c1c2c(O)cccc2oc2ccc3c(c12)CC(C(O)(CO)CCl)O3 (centres unmarked) [Example 1, 3′,4′-deoxy-4′ chloropsoroxanthin-3′,5′-diol]	42 nM	68 nM	4 nM	showed selectivity against bovine endothelial cells (ABAE)	2000 nM	0.2 to 4 µg/mL (≈ 0.551 to 11 µM)	SOS-active					
O=c1c2c(O)cccc2oc2ccc3c(c12)CC(C1(CO)CO1)O3 (centres unmarked) [Example 4, Psoroxanthin]			102 nM				highly potent SOS-active	330 nM	1000 nM	0.2 to 4 µg/mL (≈ 0.613 to 12.3 µM)		
COc1cc2c(c3oc4c(O)cccc4c(=O)c13)C[C@H]([C@@]1(C)CO1)O2 [psorospermin]											significant activity	significant activity
